Laboratory results published in patent US20240293558A1, “KRAS INHIBITOR CONJUGATES” (Erasca, Inc., priority 2021, published 2024).

Columns and labels:
[1] = molecular target: T1, KRAS (WT) (Homo sapiens, UniProt P01116); test: In-vitro RAS-RAF binding assay (RRB), HTRF/FRET; type: biochemical; settings: Table 2, average of multiple runs of each compound; read-out: Inhibition of RAS-RAF Binding (in-vitro) KRAS (WT) IC50
T1 construct: Biotinylated KRAS protein amino acids 1-169 (produced at Erasca); made in house
Protocol: (§1) Biotinylated KRAS protein amino acids 1-169 (produced at […]) is labeled with streptavidin-terbium (lanthanide cryptate donor fluorophore) in assay buffer (50 mM HEPES, pH 7.5, 100 mM NaCl, 1 mM MgCl2, 1 mM DTT) at a final concentration of 30 nM. In a separate reaction mixture, 30 nM cRAF (RBD) (Abcam, Cambridge MA) is labeled with anti-GST d2 (acceptor fluorophore). Labeling reactions are incubated for 1 hour at room temperature. […] Following the compound incubation, SOS1 catalytic domain (produced at […]) and GTPgS are added to the reaction to initiate nucleotide exchange (60 minutes exchange reaction). Once in the GTP state KRAS will bind to cRAF. No binding will occur if KRAS remains in the GDP state. Compounds may block nucleotide exchange or may create a steric obstruction to cRAF-KRAS interaction by binding to the RAS effector site. […] A portion of this mixture is transferred to a white 384-well plate (20 uL per well in duplicate) and read on an HTRF compatible plate reader (ClarioSTAR). Fluorescent resonance energy transfer (FRET) is measured at equilibrium. FRET signal will be high if KRAS-cRAF binding occurs. FRET signal will be low if KRAS-cRAF binding is inhibited by the test compound. Table 2 represents the average of multiple runs of each compound.

[2] = molecular target: KRAS G12D (Homo sapiens, UniProt P01116, G12D); test: In-vitro RAS-RAF binding assay (RRB), HTRF/FRET; type: biochemical; design: Biotinylated KRAS protein amino acids 1-169 (produced at Erasca); made in house; settings: Table 2, average of multiple runs of each compound; read-out: Inhibition of RAS-RAF Binding (in-vitro) KRAS (G12D) IC50
Protocol: as §1

KRAS G12D, sequence (P01116 1-169 isoform P01116-2 G12D): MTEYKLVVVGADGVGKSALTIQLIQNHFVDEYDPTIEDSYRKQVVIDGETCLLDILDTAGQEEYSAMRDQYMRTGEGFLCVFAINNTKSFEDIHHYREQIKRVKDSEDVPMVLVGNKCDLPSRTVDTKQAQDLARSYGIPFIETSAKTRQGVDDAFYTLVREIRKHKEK
T1 sequence (P01116 1-169 isoform P01116-2): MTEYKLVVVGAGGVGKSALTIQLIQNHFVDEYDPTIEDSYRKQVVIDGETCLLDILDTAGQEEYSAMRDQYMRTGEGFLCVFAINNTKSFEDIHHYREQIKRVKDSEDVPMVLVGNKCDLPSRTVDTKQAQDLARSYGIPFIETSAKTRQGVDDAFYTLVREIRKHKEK

| SMILES | IC50 [1] [nM] | IC50 [2] [nM] |
| --- | --- | --- |
| C#Cc1c(F)ccc2cc(O)cc(-c3ncc4c(N5CC6CCC(C5)N6)nc(OC[C@@H]5CCCN5CCCOCCC(=O)N[C@H](C(=O)N5C[C@H](O)C[C@H]5C(=O)N[C@@H](C)c5ccc(-c6c(C)cccc6C)cc5)C(C)(C)C)nc4c3F)c12 [Example 41, (2S,4R)-1-((2S)-2-(3-(3-((2S)-2-(((4-(3,8-diazabicyclo[3.2.1]octan-3-yl)-7-(8-ethynyl-7-fluoro-3-hydroxynaphthalen-1-yl)-8-fluoropyrido[4,3-d]pyrimidin-2-yl)oxy)methyl)pyrrolidin-1-yl)propoxy)propanamido)-3,3-dimethylbutanoyl)-N-((S)-1-(2′,6′-dimethyl-[1,1′-biphenyl]-4-yl)ethyl)-4-hydroxypyrrolidine-2-carboxamide] | 53.4 | 9.4 |
| C#Cc1c(F)ccc2cc(O)cc(-c3ncc4c(N5CC6CCC(C5)N6)nc(OC[C@@H]5CCCN5CCCOCCC(=O)N[C@H](C(=O)N5C[C@H](O)C[C@H]5C(=O)N[C@@H](C)c5ccc(-c6c(F)cccc6Cl)cc5)C(C)(C)C)nc4c3F)c12 [Example 42, (2S,4R)-1-((2S)-2-(3-(3-((2S)-2-(((4-(3,8-diazabicyclo[3.2.1]octan-3-yl)-7-(8-ethynyl-7-fluoro-3-hydroxynaphthalen-1-yl)-8-fluoropyrido[4,3-d]pyrimidin-2-yl)oxy)methyl)pyrrolidin-1-yl)propoxy)propanamido)-3,3-dimethylbutanoyl)-N-((S)-1-(2′-chloro-6′-fluoro-[1,1′-biphenyl]-4-yl)ethyl)-4-hydroxypyrrolidine-2-carboxamide] | 24.9 | 7.78 |
| C#Cc1c(F)ccc2cc(O)cc(-c3ncc4c(N5CC6CCC(C5)N6)nc(OC[C@@H]5CCCN5CCCOCCC(=O)N[C@H](C(=O)N5C[C@H](O)C[C@H]5C(=O)N[C@@H](C)c5ccc(-c6c(F)cccc6C(F)(F)F)cc5)C(C)(C)C)nc4c3F)c12 [Example 43, (2S,4R)-1-((2S)-2-(3-(3-((2S)-2-(((4-(3,8-diazabicyclo[3.2.1]octan-3-yl)-7-(8-ethynyl-7-fluoro-3-hydroxynaphthalen-1-yl)-8-fluoropyrido[4,3-d]pyrimidin-2-yl)oxy)methyl)pyrrolidin-1-yl)propoxy)propanamido)-3,3-dimethylbutanoyl)-N-((S)-1-(2′-fluoro-6′-(trifluoromethyl)-[1,1′-biphenyl]-4-yl)ethyl)-4-hydroxypyrrolidine-2-carboxamide] | 38.3 | 7.68 |
| C#Cc1c(F)ccc2cc(O)cc(-c3ncc4c(N5CC6CCC(C5)N6)nc(OC[C@@H]5CCCN5CCCOCCC(=O)N[C@H](C(=O)N5C[C@H](O)C[C@H]5C(=O)N[C@@H](C)c5ccc(-c6c(F)ccc(F)c6F)cc5)C(C)(C)C)nc4c3F)c12 [Example 44, (2S,4R)-1-((2S)-2-(3-(3-((2S)-2-(((4-(3,8-diazabicyclo[3.2.1]octan-3-yl)-7-(8-ethynyl-7-fluoro-3-hydroxynaphthalen-1-yl)-8-fluoropyrido[4,3-d]pyrimidin-2-yl)oxy)methyl)pyrrolidin-1-yl)propoxy)propanamido)-3,3-dimethylbutanoyl)-4-hydroxy-N-((S)-1-(2′,3′,6′-trifluoro-[1,1′-biphenyl]-4-yl)ethyl)pyrrolidine-2-carboxamide] | 34.3 | 8.92 |
| C#Cc1c(F)ccc2cc(O)cc(-c3ncc4c(N5CC6CCC(C5)N6)nc(OC[C@@H]5CCCN5CCCOCCC(=O)N[C@H](C(=O)N5C[C@H](O)C[C@H]5C(=O)N[C@@H](C)c5ccc(-c6c(Cl)cccc6Cl)cc5)C(C)(C)C)nc4c3F)c12 [Example 45] | 44.9 | 8.97 |
